Test results taken from patent US8815874B2, “Pyrazolopyrimidine derivative” (Kyowa Hakko Kirin Co., Ltd., priority 2010, dated 2014).

Experiments:
[1] = test system: Dinitrofluorobenzene-Induced Ear Edema Reaction in Mouse; assay: Suppressive action on dinitrofluorobenzene-induced ear edema reaction in mouse (Test Example 2, 50% acetone/50% ethanol solvent); type: in vivo; settings: BALE/c mice (female); test compound 1% (w/v %) in 50% acetone/50% ethanol applied to front and back of auricle 1 hr before and 3 hr after induction; auricle thickness 24 hr after induction
Procedure: (§1) 5-Week old BALE/c mice (female, supplied by CHARLES RIVER LABORATORIES JAPAN, INC) were purchased and, after quarantine and habituation, those showing satisfactory body weight increase and free of abnormal appearance were used to start the test from 7 weeks of age. The animals were housed and bred in plastic cages (6 mice per cage) in a breeding chamber set at room temperature 19-25° C., humidity 30-70%, 12 hr illumination per day (7 a.m.-7 p.m.), with free access to a commercially available solid feed and water.
(§2) One day before the test, the abdomen was shaved, and a solution of dinitrofluorobenzene (manufactured by Nacalai Tesque) in acetone (manufactured by Wako Pure Chemical Industries, Ltd.) {concentration 0.5% [weight (w)/volume (v) %]} was applied to the shaved part of BALE/c mice by 100 μL for sensitization. On day 5 after sensitization, a dinitrofluorobenzene-acetone solution [concentration 0.2% (w/v %)] was applied to the front and the back of the auricle by 10 μL each (total 20 μL) to induce reaction. A test compound dissolved in 50% acetone/50% ethanol (w/v %) to the concentration of 1% (w/v %) was applied to the front and the back of the auricle 1 hr before and 3 hr after the induction of reaction each by 10 μL (total 20 μL). After the application, the applied part was air-dried by a dryer.
(§3) A group administered with the test compound by coating was taken as a test compound administration group, and a group administered with 50% acetone/50% ethanol (w/v %) (solvent) by coating instead of the test compound was taken as a solvent administration group. In addition, a group free of sensitization and induction of reaction and administered with 50% acetone/50% ethanol (w/v %) by coating instead of the test compound was taken as a normal group. The thickness of the auricle was measured immediately before induction of reaction and 24 hr after the induction with a dial thickness gauge (manufactured by OZAKI MFG. CO., LTD., G-1A), and the difference between them was taken as ear edema. The ear edema suppressive rate (%) was calculated according to the following formula.

[2] = test system: Dinitrofluorobenzene-Induced Ear Edema Reaction in Mouse; assay: Suppressive action on dinitrofluorobenzene-induced ear edema reaction in mouse (Test Example 1, acetone solvent); type: in vivo; settings: BALE/c mice (female); test compound 1% (w/v %) in acetone applied to front and back of auricle 1 hr before and 3 hr after induction; auricle thickness 24 hr after induction
Procedure: as §1, with “5-Week to 6-week” for “5-Week”
as §2, with “acetone” for “50% acetone/50% ethanol (w/v %)”
as §3, with “acetone” for “50% acetone/50% ethanol (w/v %)”

SMILES	ear edema suppressive rate (%) [1]	ear edema suppressive rate (%) [2]
CCC(=O)NS(=O)(=O)c1cnn2c(Nc3cc(C)ccc3Cl)c(C(=O)N3CC4(C3)CN(c3ccc(F)cc3)C4)cnc12 [compound a-60, N-{7-(2-chloro-5-methylphenylamino)-6-[6-(4-fluorophenyl)-2,6-diazaspiro[3,3]heptane-2-carbonyl]pyrazolo[1,5-a]pyrimidin-3-ylsulfonyl}propionamide]	5%	–
CCC(=O)NS(=O)(=O)c1cnn2c(Nc3cc(Cl)ccc3Cl)c(C(=O)N3CCC(c4ccc(F)cc4)CC3)cnc12 [compound a-22, N-{7-(2,5-dichlorophenylamino)-6-[4-(4-fluorophenyl)piperidine-1-carbonyl]pyrazolo[1,5-a]pyrimidin-3-ylsulfonyl}propionamide]	16%	–
CCC(=O)NS(=O)(=O)c1cnn2c(Nc3cc(C)c(F)cc3Cl)c(C(=O)N3CCC(c4ccc(F)cc4)CC3)cnc12 [compound a-40, N-{7-(2-chloro-4-fluoro-5-methylphenylamino)-6-[4-(4-fluorophenyl)piperidine-1-carbonyl]pyrazolo[1,5-a]pyrimidin-3-ylsulfonyl}propionamide]	32%	–
CONS(=O)(=O)c1cnn2c(Nc3cc(Cl)ccc3Cl)c(C(=O)N3CCC(c4ccc(F)cc4)CC3)cnc12 [compound a-27, 7-(2,5-dichlorophenylamino)-6-[4-(4-fluorophenyl)piperidine-1-carbonyl]-N-methoxypyrazolo[1,5-a]pyrimidine-3-sulfonamide]	47%	–
O=C(NS(=O)(=O)c1cnn2c(Nc3ccccc3Cl)c(C(=O)N3CCC(c4ccccc4)CC3)cnc12)C1CC1 [compound a-6, N-[7-(2-chlorophenylamino)-6-(4-phenylpiperidine-1-carbonyl)pyrazolo[1,5-a]pyrimidin-3-ylsulfonyl]cyclopropanecarboxamide]	–	30%
CCNC(=O)NS(=O)(=O)c1cnn2c(Nc3ccc(F)cc3C)c(C(=O)N3CCC4(CC3)OCc3ccccc34)cnc12 [compound a-43, 7-(4-fluoro-2-methylphenylamino)-N-(ethylcarbamoyl)-6-[3H-spiro(isobenzofuran-1,4′-piperidine)-1-carbonyl]pyrazolo[1,5-a]pyrimidine-3-sulfonamide]	–	40%
CCNC(=O)NS(=O)(=O)c1cnn2c(Nc3cc(C)ccc3Cl)c(C(=O)N3CCC(c4ccc(F)cc4)CC3)cnc12 [compound a-14, 7-(2-chloro-5-methylphenylamino)-N-(ethylcarbamoyl)-6-[4-(4-fluorophenyl)piperidine-1-carbonyl]pyrazolo[1,5-a]pyrimidine-3-sulfonamide]	–	25%
